Data taken from US7727986B2, “Pesticide pyrimidinyloxy substituted phenylamidine derivatives” (Bayer CropScience AG, priority 2005, dated 2010).

Assay: logP by HPLC on reversed-phase column (C 18), EEC Directive 79/831 Annex V.A8
Assay type: physicochemical
Experimental: Temperature: 40° C.; Mobile phases: 0.1% aqueous formic acid and acetonitrile; linear gradient from 10% acetonitrile to 90% acetonitrile.

[1] = HPLC, 0.1% aqueous formic acid and acetonitrile, 40° C., pH 2.3
[2] = measured at pH = 4 (footnote a)

| SMILES | logPa [1] | also measured |
| --- | --- | --- |
| CCN(C)C=Nc1cc(C)c(Oc2nc(Cl)ncc2Cl)cc1C [Compound 64] | 1.67 | – |
| Cc1cc(Oc2ccnc(Oc3ccccc3)n2)c(C)cc1N=CN(C)C(C)C [Compound 66] | 1.81 | – |
| CCCN(C)C=Nc1cc(C)c(Oc2ccnc(Oc3cccc(Cl)c3)n2)cc1C [Compound 67] | 2.14 | – |
| Cc1cc(Oc2ccnc(Oc3cccc(Cl)c3)n2)c(C)cc1N=CN(C)C(C)C [Compound 68] | 2.12 | – |
| CCN(C)C=Nc1cc(C)c(Oc2cc(Cl)nc(Cl)n2)cc1C [Compound 69] | 1.67 | – |
| CCN(C)C=Nc1cc(C)c(Oc2ccnc(Oc3ccc(F)c(F)c3)n2)cc1C [Compound 70] | 1.93 | – |
| CCN(C)C=Nc1cc(C)c(Oc2ccnc(Oc3ccc(OC)c(OC)c3)n2)cc1C [Compound 71] | 1.65 | – |
| CCN(C)C=Nc1cc(C)c(Oc2ccnc(Oc3ccccc3)n2)cc1C [Compound 72] | 1.96 | – |
| CCN(C)C=Nc1cc(C)c(Oc2cc(C)nc(Oc3ccccc3)n2)cc1C [Compound 73] | 1.99 | – |
| COc1ccc(Oc2nccc(Oc3cc(C)c(N=CN4CCCCC4)cc3C)n2)cc1OC [Compound 74] | 1.80 | – |
| Cc1cc(Oc2cc(C)c(N=CN3CCCCC3)cc2C)nc(Oc2ccccc2)n1 [Compound 75] | 2.09 | – |
| Cc1cc(Oc2ccnc(Oc3ccccc3)n2)c(C)cc1N=CN1CCCCC1 [Compound 76] | 2.02 | – |
| CCN(C)C=Nc1cc(C)c(Oc2ccnc(Oc3ccc(C(C)(C)C)cc3)n2)cc1C [Compound 77] | 2.65 | – |
| Cc1cc(Oc2ccnc(Oc3ccc(C(C)(C)C)cc3)n2)c(C)cc1N=CN1CCCCC1 [Compound 78] | 2.75 | – |
| CCN(C)C=Nc1cc(C)c(Oc2ccnc(Oc3cccc(C)c3)n2)cc1C [Compound 79] | 2.02 | – |
| Cc1cccc(Oc2nccc(Oc3cc(C)c(N=CN4CCCCC4)cc3C)n2)c1 [Compound 80] | 2.16 | – |
| CCN(C)C=Nc1cc(C)c(Oc2ccnc(Oc3ccc(Cl)cc3)n2)cc1C [Compound 81] | 2.11 | – |

| SMILES | logPa [1] | also measured |
| --- | --- | --- |
| Cc1cc(Oc2ccnc(Oc3ccc(Cl)cc3)n2)c(C)cc1N=CN1CCCCC1 [Compound 82] | 2.18 | – |
| CCc1ncnc(Oc2cc(C)c(N=CN(C)CC)cc2C)c1Cl [Compound 83] | 1.91 | – |
| CCCN(C)C=Nc1cc(C)c(Oc2ncnc(CC)c2Cl)cc1C [Compound 84] | 1.99 | – |
| CCc1ncnc(Oc2cc(C)c(N=CN3CCCCC3)cc2C)c1Cl [Compound 85] | 1.98 | – |
| CCc1ncnc(Oc2cc(C)c(N=CN3CCCC3)cc2C)c1Cl [Compound 86] | 1.87 | – |
| CCN(C)C=Nc1cc(C)c(Oc2ccnc(Oc3ccc(C(F)(F)F)cc3)n2)cc1C [Compound 87] | 2.37 | – |
| Cc1cc(Oc2ccnc(Oc3ccc(C(F)(F)F)cc3)n2)c(C)cc1N=CN1CCCCC1 [Compound 88] | 2.49 | – |
| CCN(C)C=Nc1cc(C)c(Oc2ncc(Cl)c(N(C)CC)n2)cc1C [Compound 89, N′-[4-({5-chloro-4-[ethyl(methyl)amino]pyrimidin-2-yl}oxy)-2,5-dimethyl-phenyl]-N-ethyl-N-methylimidoformamide] | 1.82 | chromatographic logP (reversed-phase C18 HPLC column, pH 2.3, value in preparation example text, read-out: log P (pH 2.3)): 1.82 |
| CCN(C)C=Nc1cc(C)c(Oc2nccc(C(F)(F)F)n2)cc1C [Compound 90] | – | logPa [2]: 0.22^a |
| CCN(C)C=Nc1cc(C(C)C)c(Oc2nccc(C(F)(F)F)n2)cc1C [Compound 92] | – | logPa [2]: 1.10^a |
| CCN(C)C=Nc1cc(C)c(Oc2ncc(C)c(C)n2)cc1C [Compound 93] | 1.19 | – |
| CCCN(C)C=Nc1cc(C)c(Oc2ncc(C)c(C)n2)cc1C [Compound 94] | 1.4 | – |
| CCN(C)C=Nc1cc(C)c(Oc2ncc(Cl)cn2)cc1C [Compound 95] | 1.32 | – |
| CCCN(C)C=Nc1cc(C)c(Oc2ncc(Cl)cn2)cc1C [Compound 96] | 1.48 | – |
| Cc1cc(Oc2ncc(Cl)cn2)c(C)cc1N=CN(C)C(C)C [Compound 97] | 1.41 | – |
| CCCN(C)C=Nc1cc(C)c(Oc2nccc(C(F)(F)F)n2)cc1C [Compound 98] | 1.7 | – |
